What was measured:
[1] = biological target: T1, carbonyl reductase (Homo sapiens, UniProt P16152); experiment: Inhibition of carbonyl reductase by arylcyanooximes (1/rate vs. 1/substrate, menadione and NADPH as varied substrates); type: biochemical; conditions: for Ki: uncompetitive against both coenzyme and carbonyl substrates, range over the six compounds, read-out: Kii (intercept inhibition constant)
T1 sequence (P16152 1-277): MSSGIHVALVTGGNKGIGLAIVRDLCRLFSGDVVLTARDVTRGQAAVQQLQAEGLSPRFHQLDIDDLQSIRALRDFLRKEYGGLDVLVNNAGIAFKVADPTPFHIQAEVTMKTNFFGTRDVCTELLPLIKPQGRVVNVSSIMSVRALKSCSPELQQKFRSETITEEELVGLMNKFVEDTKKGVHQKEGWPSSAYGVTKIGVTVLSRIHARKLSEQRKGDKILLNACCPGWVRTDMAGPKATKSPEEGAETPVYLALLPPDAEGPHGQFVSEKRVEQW
Experimental: FIG. 6 describes inhibition patterns seen with inhibitors C1, C2, C3, C4, C5, and C6 wherein KII stands for the intercept inhibition constant.
Six arylcyanooximes (C1, C2, C3, C4, C5, and C6) were tested as possible inhibitors for carbonyl reductase. (See the syntheses described earlier in this disclosure). […] See FIGS. 5 A and B, portraying the 1/rate vs. 1/substrate concentration taken with C5, with menadione and NADPH as the varied substrates, respectively. […] Therefore, while compositions comprising C5 are preferred, compositions comprising C1, C2, C3, C4, and/or C6 are also included in embodiments of the invention and are also expected by the inventors to be beneficial in the methods of the invention.

[2] = test system: A549 adenocarcinoma cells; conditions: coadministered with daunorubicin; cited from earlier work
[3] = biological target: T1, carbonyl reductase; conditions: cited from earlier work

Structure (SMILES)	inhibition pattern against the carbonyl substrate [1]	inhibition pattern against both coenzyme and carbonyl substrates [1]	Ki [1]	melting point	potency as inhibitor of carbonyl reductase (in words) [1]	inhibition pattern against NADPH ([1]; NADPH as varied substrate (FIG. 5B))	inhibition pattern against menadione ([1]; menadione as varied substrate (FIG. 5A))	effect on cytotoxicity of daunorubicin [2]	potency as inhibitor of human carbonyl reductase (in words) [3]
N#CC(=NO)c1c(Cl)cccc1Cl [C6, oximino(2,6-dichlorophenyl)acetonitrile]	uncompetitive inhibitors	uncompetitive inhibitors	10.8 to 72 µM	94 to 96 °C					
N#CC(=NO)c1c(F)cccc1Cl [C4, oximino(2-chloro-6-fluorophenyl)acetonitrile]	uncompetitive inhibitors	uncompetitive inhibitors	10.8 to 72 µM						
CNc1ncnc2c1c(-c1cccc(O)c1)cn2C(C)C [3-(7-isopropyl-4-(methylamino)-7H-pyrrolo[2,3-d]pyrimidin-5-yl)phenol]								enhance the cytotoxicity of daunorubicin	potent inhibitor

More lines, main results first:

inhibition pattern against the carbonyl substrate [1]	inhibition pattern against both coenzyme and carbonyl substrates [1]	Ki [1]	melting point	potency as inhibitor of carbonyl reductase (in words) [1]	inhibition pattern against NADPH ([1]; NADPH as varied substrate (FIG. 5B))	inhibition pattern against menadione ([1]; menadione as varied substrate (FIG. 5A))	Structure (SMILES)	effect on cytotoxicity of daunorubicin [2]	potency as inhibitor of human carbonyl reductase (in words) [3]
uncompetitive inhibitors	uncompetitive inhibitors	10.8 to 72 µM	99 to 100 °C				N#CC(=NO)c1c(F)cccc1F [C2, oximino(2,6-difluorophenyl)acetonitrile]		
uncompetitive inhibitors	uncompetitive inhibitors	10.8 to 72 µM	64 to 67 °C				N#CC(=NO)c1cc(F)ccc1F [C3, oximino(2,5-difluorophenyl)acetonitrile]		
uncompetitive inhibitors	uncompetitive inhibitors	10.8 to 72 µM	151 °C	potent inhibitor	uncompetitive inhibitor	uncompetitive inhibitor	N#CC(=NO)c1ccc(Cl)cc1Cl [C5, oximino(2,4-dichlorophenyl)acetonitrile]		
uncompetitive inhibitors	uncompetitive inhibitors	10.8 to 72 µM	64 to 65 °C				N#CC(=NO)c1ccc(F)cc1F [C1, oximino(2,4-difluorophenyl)acetonitrile]		

From patent US7727967B2, “Cyanooxime inhibitors of carbonyl reductase and methods of using said inhibitors in treatments involving anthracyclines” (Boise State University, priority 2006, dated 2010)
